Test results reported in patent US9233961B2, “Compounds and compositions for the treatment of parasitic diseases” (Novartis AG, priority 2013, dated 2016).
Read-outs that look alike come from different tables or passages of the source.

Legend:
[1] = system: Leishmania donovani axenic amastigote parasites; assay: Leishmania donovani axenic amastigote proliferation assay; format: cell-based
Method: Leishmania Donovani Axenic Amastigote Proliferation Assay
Leishmania donovani axenic amastigote parasites are grown at 37° C., 5% CO2 in media made of RPMI 1640, 4 mM L-glutamine, 20% heat inactivated FBS, 100 units/ml of penicillin and 100 μg/ml of streptomycin, 23 μM Folic Acid, 100 μM Adenosine, 22 mM D-glucose, 25 mM MES. The pH of media is adjusted to 5.5 at 37° C. using HCl. 20 μL of media is first dispensed into 384 well plates and 100 nL of the compounds of invention in DMSO are added to the plate wells. At the same time control compounds and DMSO are added to plates to serve as the positive and negative controls, respectively. 40 μL of parasite culture (9600 parasites) are then added to the plate wells. The plates are then placed into incubators. After 2 day incubation, 20 μL of Cell TiterGlo (Promega) is added to the plate wells. The luminescence signal of each well is measured using the Envision reader (Perkin Elmer). The percentage inhibition of 50%, EC50, is calculated for each of the compounds.

[2] = system: L. donovani HU3 strain in mouse peritoneal macrophages; assay: Assay for proliferation of Leishmania parasites in mouse peritoneal macrophages; format: cell-based, Leishmania donovani; conditions: Leishmania donovani, Peritoneal macrophage
Excerpt: Assay for Proliferation of Leishmania Parasites
The activity of a compound according to the present invention for inhibition of parasitemai can be assessed by the parasite proliferation assay. The assay measures the increase in the parasite number in the assayed plate well using a DNA intercalating dye, SYBR Green I® dye (INVITROGEN) to stain Leishmania cell nuclei. It is understood that the assays illustrate the invention without in any way limiting the scope of the invention.
L. donovani HU3 strain is propagated by infecting BALB/c mice through tail vein injection with 10^7 Leishmania parasites. Infected mice are allowed to develop infection during 9-11 weeks post-infection. During this time, the parasites accumulate in the infected mouse spleens to large numbers, and the infected mice serve as the source of parasites for the in vitro measurement of compound efficacies. To assay a compound for anti-leishmanial activity, peritoneal macrophages isolated from non-infected BALB/c mice are seeded into 384-well plates at density 2×10^4 macrophages per well in […] of medium (RPMI 1640, 10% […], 10 mM HEPES, 1 mM sodium pyruvate, 1% Pen/Strep). Subsequently, the seeded plates are placed into an incubator set to maintain 37° C. temperature and atmosphere with 5% CO2. The next day, Leishmania parasites are isolated from the spleens of mice infected for 9-11 weeks and 4×10^5 isolated parasites in […] of the above media are added to each plate well. Plates are then returned into incubators and infection is allowed to proceed for 24 hours. After the infection of macrophages is completed, […] of compounds of the invention in the above medium, which also contains 5% DMSO, are added to plate wells containing infected macrophages. At the same time control compounds (miltefosine and amphotericin B) and DMSO are added to plates to serve as the positive and negative controls, respectively. After the compound addition, the plates are returned into incubator and cells infected with parasites are cultured for 5 days. At the end of cultivation, […] of 8% paraformaldehyde is added to plate wells and incubated for 15 min at room temperature. Following the incubation, the paraformaldehyde from plate wells is aspirated, and […] of PBS containing 0.2% Triton X-100 is added to wells. After 15 min incubation, the solution is aspirated from wells again, and replaced with SybrGreen Dye solution in PBS (1:125,000 dilution). Infected cells are imaged with Evotec Opera high-content microscope, and the number of parasites in well is determined by counting parasite nuclei visualized by staining with SybrGreen dye. The percentage inhibition of 50%, EC50, is calculated for each compound.
The inhibitory efficacy of the compounds of the invention in delaying the proliferation of L. donovani in mouse peritoneal macrophages is provided in Table I, infra.

[3] = axenic amastigotes in vitro, read-out: L. donovani amastigotes EC50
[4] = read-out: L. donavani Macrophage EC50
[5] = read-out: L. donavani Macrophage EC50 (μM)

O=C(Nc1ccc(Cl)c(-c2nc3ncc(C(F)(F)F)cc3[nH]2)c1)c1cnccn1 [Compound 285]
EC50 [1, 3]: 0.73 µM
EC50 [2, 4]: 5 µM

CC(C)OC(=O)Nc1ccc(Cl)c(-c2nc3ncc(-c4ccc(NC(=O)CN)cc4)cc3[nH]2)c1 [Compound 338]
EC50 [1, 3]: 2.4 µM
EC50 [2, 4]: 0.42 µM

Nc1ccccc1-c1cnc2nc(-c3cc(NC(=O)c4ccco4)ccc3Cl)[nH]c2c1 [Compound 23]
EC50 [1, 3]: 0.32 µM
EC50 [2, 4]: 0.37 µM

O=C(Nc1ccc(C(F)(F)F)cc1)Nc1ccc(F)c(-c2nc3ncc(-c4ccc(CN5CCOCC5)cc4)cc3o2)c1 [Compound 395]
EC50 [1, 3]: 12 µM
EC50 [2, 4]: 6.8 µM

COc1ncc(-c2cnc3nc(-c4cc(NC(=O)c5ccco5)ccc4Cl)[nH]c3c2)cn1 [Compound 9]
EC50 [1, 3]: 0.45 µM
EC50 [2, 4]: 1.2 µM

O=C(Nc1ccc(C(F)(F)F)cc1)Nc1ccc(F)c(-c2nc3ncc(-c4ccc(N5CCCCC5)cc4)cc3o2)c1 [Compound 399]
EC50 [1, 3]: 15.8 µM
EC50 [2, 4]: 5.9 µM

O=C(Nc1ccc(Cl)c(-c2nc3ncc(-c4ccc(OCCn5cccn5)cc4)cc3[nH]2)c1)c1ccco1 [Compound 40]
EC50 [1, 3]: 0.61 µM
EC50 [2, 4]: 0.97 µM

Cc1cnc2nc(-c3cc(NC(=O)c4ccnc(C)c4C)ccc3Cl)[nH]c2c1 [Compound 189]
EC50 [1, 3]: > 25 µM
EC50 [2, 4]: > 28.9 µM

COC(=O)Nc1ccc(-c2cnc3nc(-c4cc(NC(=O)OC(C)C)ccc4Cl)[nH]c3c2)cc1 [Compound 341, methyl N-{4-[2-(2-chloro-5-{[(propan-2-yloxy)carbonyl]amino}phenyl)-1H-imidazo[4,5-b]pyridin-6-yl]phenyl}carbamate]
EC50 ([1]; 48 h, L. donovani axenic amastigotes, 2 day incubation, Cell TiterGlo luminescence, read-out: EC50): ~0.08 µM
EC50 [1, 3]: 0.08 µM
EC50 [2, 4]: 0.23 µM

CNc1ccc(F)c(-c2nc3ncc(-c4ccc(OCCN5CCOCC5)cc4)cc3o2)c1 [Example 421, 4-Fluoro-N-methyl-3-(6-{4-[2-(morpholin-4-yl)ethoxy]phenyl}-[1,3]oxazolo[4,5-b]pyridin-2-yl)aniline]
EC50 [1, 3]: > 25 µM
EC50 [2, 5]: > 50 µM

NC(=O)Nc1ccc(-c2cnc3nc(-c4cc(NC(=O)c5ccco5)ccc4Cl)[nH]c3c2)cc1 [Compound 32]
EC50 [1, 3]: > 25 µM
EC50 [2, 4]: 15.3 µM

O=C(Nc1ccc(Cl)c(-c2nc3ncc(-c4ccc(OCCCN5CCOCC5)cc4)cc3[nH]2)c1)N1CCCC1 [Compound 302]
EC50 [1, 3]: 5.9 µM
EC50 [2, 4]: 9.9 µM

Cc1cnc2nc(-c3cc(NC(=O)c4ccc(C(F)(F)F)cc4)ccc3Cl)[nH]c2c1 [Compound 153]
EC50 [1, 3]: > 25 µM
EC50 [2, 4]: 14.9 µM

O=C(Nc1ccc(Cl)c(-c2nc3ncc(Br)cc3[nH]2)c1)c1ccc(F)o1 [Compound 373]
EC50 [1, 3]: 0.55 µM
EC50 [2, 4]: 2.15 µM

Nc1ccc(-c2cnc3nc(-c4cc(NC(=O)Nc5ccc(C(F)(F)F)cc5)ccc4F)oc3c2)cn1 [Compound 400]
EC50 [1, 3]: 1.62 µM
EC50 [2, 4]: 4 µM

Cc1cnc2nc(-c3cc(NC(=O)CCCN4CCOCC4)ccc3Cl)[nH]c2c1 [Compound 132]
EC50 [1, 3]: > 25 µM
EC50 [2, 4]: > 50 µM

O=C(Nc1cccc(-c2nc3ncc(-c4ccc(OC(F)(F)F)cc4)cc3[nH]2)c1)c1ccco1 [Compound 41]
EC50 [1, 3]: 5.9 µM
EC50 [2, 4]: 2.2 µM

COC(=O)Nc1ccc(-c2cnc3nc(-c4cc(NC(=O)N5CCC5)ccc4Cl)[nH]c3c2)cc1 [Compound 344]
EC50 [1, 3]: 7.6 µM
EC50 [2, 4]: 17 µM

COCCOc1ccc(-c2cnc3nc(-c4cc(NC(=O)N5CCCC5)ccc4Cl)[nH]c3c2)cc1 [Compound 303]
EC50 [1, 3]: 0.146 µM
EC50 [2, 4]: 0.4 µM

Cc1cnc2nc(-c3cc(NC(=O)[C@H]4C[C@@H](O)CN4)ccc3F)[nH]c2c1 [Compound 271]
EC50 [1, 3]: > 25 µM
EC50 [2, 4]: > 50 µM

O=C(Nc1ccc(F)c(-c2nc3ncc(Br)cc3o2)c1)c1cnco1 [Compound 408]
EC50 [1, 3]: 3.8 µM
EC50 [2, 4]: > 50 µM

CN(C)Cc1ccc(C(=O)Nc2ccc(Cl)c(-c3nc4ncc(C(F)(F)F)cc4[nH]3)c2)o1 [Compound 277]
EC50 [1, 3]: > 25 µM
EC50 [2, 4]: 15.2 µM

O=C(Nc1ccc(Cl)c(-c2nc3ncc(-c4ccccc4)cc3o2)c1)c1ccco1 [Example 416, N-(4-chloro-3-{6-phenyl-[1,3]oxazolo[4,5-b]pyridin-2-yl}phenyl)-furan-2-carboxamide]
EC50 [1, 3]: 1.52 µM
EC50 [2, 5]: 2.9 µM

CSc1nccc(C(=O)Nc2ccc(Cl)c(-c3nc4ncc(C)cc4[nH]3)c2)n1 [Compound 137]
EC50 [1, 3]: > 25 µM
EC50 [2, 4]: 15.9 µM

Cc1cnc2nc(-c3cc(NC(=O)c4ccno4)ccc3F)[nH]c2c1 [Compound 270]
EC50 [1, 3]: 20 µM
EC50 [2, 4]: > 50 µM

Cc1cnc2nc(-c3cc(NC(=O)c4cc5ccccn5n4)ccc3F)[nH]c2c1 [Compound 274]
EC50 [1, 3]: 17 µM
EC50 [2, 4]: 26.7 µM

CC(C)N(C(=O)Nc1ccc(F)c(-c2nc3ncc(Br)cc3[nH]2)c1)C(C)C [Compound 362]
EC50 [1, 3]: > 25 µM
EC50 [2, 4]: 7.5 µM

CN(C)Cc1ccc(C(=O)Nc2ccc(Cl)c(-c3nc4ncc(Br)cc4[nH]3)c2)o1 [Example 372, N-(3-{6-bromo-1H-imidazo[4,5-b]pyridin-2-yl}-4-chlorophenyl)-5-[(dimethylamino)methyl]furan-2-carboxamide]
EC50 [1, 3]: > 25 µM
EC50 [2, 4]: 2.52 µM

COc1cc(C(=O)Nc2ccc(Cl)c(-c3nc4ncc(C)cc4[nH]3)c2)ccn1 [Compound 129]
EC50 [1, 3]: > 25 µM
EC50 [2, 4]: 27.4 µM

CN(C)C(=O)Nc1ccc(F)c(-c2nc3ncc(Cl)cc3[nH]2)c1 [Compound 354]
EC50 [1, 3]: > 25 µM
EC50 [2, 4]: > 50 µM

Cc1ccc(C(=O)Nc2ccc(F)c(-c3nc4ncc(-c5ccccc5)cc4[nH]3)c2)o1 [Example 380, N-(4-fluoro-3-{6-phenyl-1H-imidazo[4,5-b]pyridin-2-yl}phenyl)-5-methylfuran-2-carboxamide]
EC50 [1, 3]: 5.7 µM
EC50 [2, 4]: 3.3 µM

Cc1cnc2nc(-c3cc(NC(=O)C(O)c4ccc(C(F)(F)F)cc4)ccc3Cl)[nH]c2c1 (stereo not shown) [Compound 182]
EC50 [1, 3]: > 25 µM
EC50 [2, 4]: > 50 µM

Cc1cnc2nc(-c3cc(NC(=O)c4occc4C)ccc3Cl)[nH]c2c1 [Compound 130]
EC50 [1, 3]: 2.01 µM
EC50 [2, 4]: 15.7 µM

CC(C)OC(=O)Nc1ccccc1-c1cnc2nc(-c3cc(NC(=O)c4ccco4)ccc3Cl)[nH]c2c1 [Compound 37]
EC50 [1, 3]: 0.46 µM
EC50 [2, 4]: 0.55 µM

COC(=O)c1ccc(-c2cnc3nc(-c4cc(NC(=O)c5ccco5)ccc4Cl)[nH]c3c2)cc1 [Compound 35]
EC50 [1, 3]: 0.234 µM
EC50 [2, 4]: 2.11 µM

COCn1c(-c2cc(NC(=O)N3CCCC3)ccc2Cl)nc2cc(Br)cnc21 [Example 385, N-{3-[6-bromo-3-(methoxymethyl)-3H-imidazo[4,5-b]pyridin-2-yl]-4-chlorophenyl}pyrrolidine-1-carboxamide]
EC50 ([1]; read-out: L. donovani amastigotes EC50): > 23.2 µM
EC50 [2, 4]: > 10.9 µM

CCc1noc(C(=O)Nc2ccc(F)c(-c3nc4ncc(Br)cc4o3)c2)n1 [Compound 405]
EC50 [1, 3]: > 25 µM
EC50 [2, 4]: > 50 µM

CN(C)c1ccc(-c2cnc3nc(-c4cc(NC(=O)Nc5ccc(C(F)(F)F)cc5)ccc4F)oc3c2)cc1 [Compound 390]
EC50 [1, 3]: 12.6 µM
EC50 [2, 4]: 18.2 µM

CC(C)OC(=O)Nc1ccc(-c2cnc3nc(-c4cc(NC(=O)c5ccco5)ccc4Cl)[nH]c3c2)cc1 [Compound 31]
EC50 [1, 3]: 0.177 µM
EC50 [2, 4]: 0.45 µM

O=C(Nc1ccc(Cl)c(-c2nc3ncc(Br)cc3[nH]2)c1)c1cocn1 [Compound 369]
EC50 [1, 3]: > 25 µM
EC50 [2, 4]: > 50 µM

O=C(Nc1ccc(C(F)(F)F)cc1)Nc1ccc(F)c(-c2nc3ncc(N4CCCCC4)cc3o2)c1 [Compound 397]
EC50 [1, 3]: > 25 µM
EC50 [2, 4]: > 30 µM

Cc1cnc2nc(-c3cc(NC(=O)CO)ccc3Cl)[nH]c2c1 [Compound 183]
EC50 [1, 3]: > 25 µM
EC50 [2, 4]: > 50 µM
